Where “and” joins values, the source holds several entries; their conditions need not be identical. Equal entries are not always repeated.
Legend:
Rattus norvegicus [1] = conditions: developmental, oral, M, generation: F1
Rattus norvegicus [2] = conditions: for NOEL: Hershberger, gavage, Sprague-Dawley, active + Antiandrogenic + anti-androgenic + PPS delayed; for LEL: uterotrophic, Active
Chalcophaps sp. = conditions: oral
Mus musculus [3] = conditions: repeat dose other; oral
Rattus norvegicus [4] = test system: Rattus norvegicus
Rattus norvegicus [5] = test system: Rattus norvegicus; remark: listed apart in the source
Rattus norvegicus [6] = conditions: oral; for NOEL: subchronic, diet, Fischer 344, Body Weight Changes: decrease + Food Consumption: decrease + Hematology: Hct decrease, Hgb decrease, RBC decrease, N-RBC increase, MCV …
Rattus norvegicus [7] = conditions: chronic, oral
Mus musculus [8] = conditions: chronic; duration: 25 months; oral; diet; M/F; Swiss; Histopathology in lungs
Canidae [9] = conditions: repeat dose other; oral; Dog Other
Homo sapiens [10] = conditions: clinical
Monkey [11] = conditions: chronic; duration: 26 weeks; inhalation; M; Cynomolgus; respiratory
Homo sapiens [12] = conditions: clinical, oral
Rattus norvegicus [13] = conditions: repeat dose other; oral
Coturnix japonica = conditions: repeat dose other; oral
Monkey [14] = conditions: chronic; duration: 6 months; oral; diet; M/F; increased thyroid weight
Monkey [15] = conditions: chronic; duration: 6 months; oral; diet; Thyroid: Increased weight
Mus musculus [16] = conditions: uterotrophic, Active
Oryctolagus sp. [17] = conditions: developmental; oral; F; excessive loss of litters
Oryctolagus sp. [18] = conditions: reproduction developmental; duration: 13 days; oral; gavage; Reproduction: Loss of litters
Homo sapiens [19] = conditions: clinical; oral; Cholinesterase: Decreased cholinesterase activity
Canidae [20] = conditions: subchronic; duration: 13 weeks; oral; capsule; M/F; Beagle; neurological
Rattus norvegicus [21] = assay: FEL; higher = less toxic; conditions: short-term; duration: 10 days; inhalation; M/F; inflammation of the nasal passage
[22] = gavage, Crl:CD(SD), F1: AGD (mm)
[23] = chronic, duration: 2 years, oral, M/F, reduced weight gain, histopathology: rats

CCCCOC(=O)c1ccccc1C(=O)OCCCC [Dibutyl 1,2-benzenedicarboxylate]
NOEL (Rattus norvegicus [1]; Albino, F1: AGD (units not specified)): 50 mg/kg-day
LOEL (Rattus norvegicus [1]; [22]): 500 mg/kg-day
NOEL (Rattus norvegicus [1]; [22]): 100 mg/kg-day
NOEL (Rattus norvegicus [2]; duration: 5 days, oral): 500 mg/kg-day
NOEL (Rattus norvegicus [2]; duration: 10 days, oral): 500 mg/kg-day
LOAEL (Chalcophaps sp.): 1.1 mg/kg-day
NOAEL (Chalcophaps sp.): 0.11 mg/kg-day
LOAEL (Mus musculus [3]): 1830 mg/kg-day
NOAEL (Mus musculus [3]): 550 mg/kg-day
LOAEL (Rattus norvegicus [4]; subchronic, oral, M, mortality): 600 mg/kg-day
NOAEL (Rattus norvegicus [4]; subchronic, oral, M, mortality): 125 mg/kg-day
NOAEL (Rattus norvegicus [5]; developmental, duration: 9 days, oral, gavage, M/F, Sprague-Dawley, developmental): 50 mg/kg-day
NOEL (Rattus norvegicus [6]; F): 177 mg/kg-day
NOEL (Rattus norvegicus [6]; M/F): < 240 mg/kg-day
NOAEL (Rattus norvegicus [7]; duration: 52 weeks, diet, Whole body: Increased mortality): 125 mg/kg-day

N#CC(c1ccc(Cl)cc1)c1c(Cl)cc(-n2ncc(=O)[nH]c2=O)cc1Cl (stereo not drawn) [Diclazuril]
LOEL (Mus musculus [8]): 11 mg/kg-day
NOEL (Mus musculus [8]): 3 mg/kg-day

C=O [Formaldehyde]
NOAEL (Canidae [9]): 9.4 mg/kg-day
LOAEL (Rattus norvegicus [4]; [23]): 82 mg/kg-day
NOAEL (Rattus norvegicus [4]; [23]): 15 mg/kg-day
NOAEL (Rattus norvegicus [5]; chronic, duration: 2 years, oral, M/F, Wistar, gastrointestinal): 15 mg/kg-day
NOAEL (Rattus norvegicus [5]; short-term, duration: 4 weeks, oral, drinking water, M/F, Wistar, gastrointestinal): 25 mg/kg-day
LOAEL (Homo sapiens [10]; duration: 2 hours, inhalation, M/F, respiratory): 0.491 mg/m3
NOAEL (Monkey [11]): 1.2 mg/m3
NOAEL (Rattus norvegicus [6]; short-term, duration: 28 days, drinking water, M/F, Wistar, Clinical Observation: Yellowish discoloration of fur + Food Consumption: decrease + Water Consumption: decrease + Blood Chemistry: TP …): 25 mg/kg-day
NOAEL (Rattus norvegicus [7]; duration: 2 years, drinking water, Gastrointestinal tract: Lesions): 15 mg/kg-day

CC1(C)[C@@H](O[C@H]2O[C@H](C(=O)O)[C@@H](O)[C@H](O)[C@H]2O[C@@H]2O[C@H](C(=O)O)[C@@H](O)[C@H](O)[C@H]2O)CC[C@]2(C)[C@H]3C(=O)C=C4[C@@H]5C[C@@](C)(C(=O)O)CC[C@]5(C)CC[C@@]4(C)[C@]3(C)CC[C@@H]12 [Glycyrrhizin]
NOAEL (Homo sapiens [12]; duration: 8 weeks, capsule, F, Inhibition of the type-2 11b-hsd, with a consequent increase in concentrations of cortisol): 2 mg/kg-day

CC(=O)[O-].CC(=O)[O-].[Pb+2] [Lead acetate]
LOAEL (Rattus norvegicus [13]): 80 mg/kg-day
NOAEL (Rattus norvegicus [13]): 8 mg/kg-day
LOAEL (Coturnix japonica): 11.3 mg/kg-day
NOAEL (Coturnix japonica): 1.13 mg/kg-day

S=C([S-])NCCNC(=S)[S-].[Mn+2] [Maneb]
LEL (Monkey [14]): 15 mg/kg-day
NOEL (Monkey [14]): 5 mg/kg-day
NOEL (Monkey [15]): 5 mg/kg-day

COc1ccc(C(c2ccc(OC)cc2)C(Cl)(Cl)Cl)cc1 [Methoxychlor]
LEL (Rattus norvegicus [2]; duration: 1 days, injection, intraperitoneal): 10 mg and 5 mg/day
LEL (Rattus norvegicus [2]; duration: 1 days, oral): 125 mg/kg-day
LEL (Rattus norvegicus [2]; duration: 4 days, injection, intraperitoneal): 0.75 mg/kg-day
LEL (Rattus norvegicus [2]; duration: 7 days, injection, subcutaneous): 100 mg/kg-day
LEL (Rattus norvegicus [2]; duration: 7 days, oral): 50 mg/kg-day
LEL (Rattus norvegicus [2]; duration: 42 days, oral, diet): 500 ppm
LEL (Rattus norvegicus [2]; duration: 98 days, oral, diet): 1500 ppm
LEL (Mus musculus [16]; duration: 3 days, oral): 1 mg/day
LEL (Mus musculus [16]; duration: 4 days, injection, subcutaneous): 100 mg/kg-day
LEL (Mus musculus [16]; duration: 5 days, injection, subcutaneous): 10 mg/kg-day
LOAEL (Rattus norvegicus [13]): 8 mg/kg-day
NOAEL (Rattus norvegicus [13]): 4 mg/kg-day
LEL (Oryctolagus sp. [17]): 35.5 mg/kg-day
NOEL (Oryctolagus sp. [17]): 5.01 mg/kg-day
LOAEL (Rattus norvegicus [5]; reproduction developmental, duration: 364 days, oral, gavage, M/F, Sprague-Dawley, reproductive): 5 mg/kg-day
NOEL (Oryctolagus sp. [18]): 5.01 mg/kg-day

CN(C)[C@@H]1C(=O)C(C(N)=O)=C(O)[C@@]2(O)C(=O)C3=C(O)c4c(O)cccc4[C@@](C)(O)[C@H]3[C@H](O)[C@@H]12 [Oxytetracycline]
NOEL (Homo sapiens [12]; Selection of resistant enterobacteriaceae): 0.033 mg/kg-day

CCOP(=S)(OCC)Oc1ccc([N+](=O)[O-])cc1 [Parathion]
NOAEL (Rattus norvegicus [5]; subchronic, duration: 6 weeks, inhalation, whole body, M, Sprague-Dawley, neurological): 0.01 mg/m3
NOAEL (Homo sapiens [10]; duration: 30 days, oral, capsule, M, neurological): 0.09 mg/kg-day
NOAEL (Homo sapiens [19]): 0.064 mg/kg-day

C=C1C(CCl)(CCl)C2(Cl)C(Cl)C(Cl)C1(Cl)C2(Cl)Cl (stereo not drawn) [Toxaphene]
NOAEL (Rattus norvegicus [13]): 8 mg/kg-day
NOAEL (Canidae [20]): 5 mg/kg-day

CCN(CC)CC [Triethylamine]
NOAEL (Rattus norvegicus [4]; chronic, duration: 28 weeks, inhalation, M/F, no effects): 1020 mg/m3
FEL (Rattus norvegicus [21]): 4140 mg/m3
